Data published in US11197862B2, “Methods of preventing toxicity of platinum drugs” (XOMICS BIOPHARMA, INC., priority 2015, dated 2021).
Where two headings read alike, the source gives them in different places.

Legend:
OCT2 [1] = biological target: T1, OCT2 (Homo sapiens, UniProt O15244); settings: cited from earlier work
T1 sequence (O15244 1-555): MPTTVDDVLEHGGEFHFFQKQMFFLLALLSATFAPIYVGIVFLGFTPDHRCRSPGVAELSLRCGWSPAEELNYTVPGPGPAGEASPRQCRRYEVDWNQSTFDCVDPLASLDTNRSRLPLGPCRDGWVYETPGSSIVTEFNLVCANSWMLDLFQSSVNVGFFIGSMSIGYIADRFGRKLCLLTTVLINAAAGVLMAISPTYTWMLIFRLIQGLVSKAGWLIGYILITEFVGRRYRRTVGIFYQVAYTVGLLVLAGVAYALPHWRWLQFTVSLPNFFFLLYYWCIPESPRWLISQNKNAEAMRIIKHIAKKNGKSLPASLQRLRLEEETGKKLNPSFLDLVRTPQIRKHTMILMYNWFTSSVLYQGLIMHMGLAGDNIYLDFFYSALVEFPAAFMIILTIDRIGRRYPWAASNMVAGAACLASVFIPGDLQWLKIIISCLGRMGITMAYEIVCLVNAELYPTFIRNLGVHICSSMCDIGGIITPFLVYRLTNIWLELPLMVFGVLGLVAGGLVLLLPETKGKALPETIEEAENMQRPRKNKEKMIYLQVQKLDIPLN

[2] = human, in vivo
HepG2 cells = test: Anti-proliferation study (SRB assay) in HepG2 cells; settings: FIG. 10
Method: (§1) The potency was determined by the sulforhodamine B (SRB) assay in 96-well plates. […] Seeding density was 3000 cells/well for both cell lines.

[3] = cited from earlier work
OCT2 [4] = biological target: T1, OCT2; test: Inhibition of OCT2-mediated oxaliplatin uptake in transfected MDCK-II cells (protein-free HBSS); settings: for inhibition at 30 min, 5 μM / inhibition at 30 min, 50 μM / potency estimated from few doses at 30 min: human
Text: Fully confluent MDCK cell monolayers were transfected with either cDNA plasmids encoding the human transporter to be tested or a GFP control. […] The cells were then washed with ice-cold PBS and lysed with 50:50 acetonitrile:H2O. Intracellular content of the substrate was quantified by LC/MS/MS or a MicroBeta radiometric plate reader.

[5] = tested on: MDCK cells expressing OCT2, MATE1 and MATE2K; test: LDH cytotoxicity of oxaliplatin in MDCK-II triple-transporter model; settings: for effect on oxaliplatin induced cytotoxicity in OCT2 expressing cells: buflomedil 3 and 6 μM, dolutegravir 10 μM, erlotinib 6 μM, cimetidine 6 μM, FIG. 6
Method: A triple-transporter model for OCT2(SLC22A2), MATE1(SLC47A1), and MATE2-K(SLC47A2) was created by transfecting fully confluent MDCK-II cell monolayers with DNA mixture containing the plasmids encoding OCT2, MATE1, and MATE-2K at concentrations of 40, 15, and 5 ng/μl, respectively. The OCT2 was expressed on the basolateral cell membrane, and MATE1 and MATE2-K were expressed on the apical side of the cells. […] The apical medium was adjusted to pH 6.7 with 25 mM of 2-(N-morpholino) ethanesulfonic acid (MES).
After removal of the media, a drug-free medium was added in both sides. After incubation 24 hours, the medium was collected, and the lactate dehydrogenase (LDH) activity in the medium was measured using an LDH cytotoxicity assay kit (G-Biosciences. St. Louis, Mo.; or Biochain, Newark, Calif.), according to the manufacturers' instructions. Cytotoxicity was evaluated by measuring the LDH activity in the medium.
Cytotoxicity was tested using the same procedure described above.

OCT2 [6] = biological target: T1, OCT2; test: Inhibition of OCT2-mediated oxaliplatin transport in 100% human serum or HBSS containing 4% BSA (IC50,app); settings: for transporter preference in inhibiting oxaliplatin transport: serum or 4% BSA
OCT2 [7] = biological target: T1, OCT2; test: Inhibition of OCT2-mediated metformin uptake in transfected MDCK-II cells
OCT2 [8] = biological target: T1, OCT2; test: Inhibition of OCT2-mediated ASP+ uptake (Kido et al., Giacomini group); settings: human, cell line expressing human OCT2 (cell line not given), probe ASP+ 5 μM
[9] = tested on: cells co-expressing OCT2 and MATE1; test: Intracellular oxaliplatin content in cells co-expressing OCT2 and MATE1; format: cell-based; settings: oxaliplatin 100 μM in 4% BSA HBSS, 90 min
Text: In most naturally occurring cells, uptake transporters co-exist with efflux transporters. It is the interplay between the uptake and efflux transporters that determines the net intracellular accumulation of a substrate. One example is in the proximal tubule epithelial cells in the kidney, where the basolaterally expressed transporters, mainly OCT2, work in concert with the apically expressed MATE1 and MATE2K [5]. […] Cells with single expression of OCT2 or GFP mock were also used as a control.

[10] = Published clinical pharmacokinetic data; settings: from published Cmax and protein binding
HT-29 cells = test: Anti-proliferation study (SRB assay) in HT-29 cells; settings: co-treatment; FIG. 11
Method: as §1

OCT2 [11] = biological target: T1, OCT2; test: in vitro
OCT2 [12] = biological target: T1, OCT2; test: in vitro; remark: listed apart in the source
[13] = Plasma levels of buflomedil and oxaliplatin in the chronic model; format: in vivo, mouse; settings: 15 minutes after the 8th cycle
Method: At baseline (before drug treatment) and at the end of treatment, caudal nerve conduction study (NCS), behavioral tests (Dynamic and Cold Plate), histopathology study were performed. Serum samples were collected at the end of treatment.

[14] = tested on: Balb/c mice exposed to chronic treatment with Oxaliplatin; test: Cold Plate Test in chronic oxaliplatin neuropathy model; format: in vivo, mouse; settings: OXA 3.5 mg/kg iv ± BFMD 30 mg/kg ip + 15 mg/kg iv
Method: Cold Plate Test was used to determine the alterations in cold temperature related pain perception and their changes due to pharmacological treatment. Cold Plate Test was performed by using an apparatus (35100—Hot/Cold Plate. Ugo Basile instruments) composed by a Plexiglas cylinder and a thermostatic plate, able to reach variable temperatures. The mice were placed on the plate set at +4° C., free to move and walk. Two blinded experimenters simultaneously determine the number of pain signs (e.g. jumping, licking, etc.) in a trial of 5 minutes.

[15] = tested on: Balb/c mice exposed to chronic treatment with Oxaliplatin; test: Morphometry and histopathology of DRG neurons in chronic oxaliplatin neuropathy model; format: in vivo, mouse
Text: The investigator was blind to the nerve and DRG conditions for these analyses. Three animals from each group were sacrificed four days after the last oxaliplatin dose. The left sciatic nerves and the L4-L5 DRGs were harvested and processed following previously reported protocols, resin embedded and sectioned for light and electron microscope analysis. For the light microscopy analysis, 1 μm semithin sections were stained with toluidine blue and examined using a Nikon Eclipse E200 light microscope (Nikon, Firenze, Italy). For the electron microscopy analysis, ultrathin sections (80 nm) counterstained with uranyl acetate and lead citrate, were examined with a Philips CM 10 transmission electron microscope (Philips, Eindhoven, Netherlands).
The investigator was blind to the experimental conditions of the tissue for these experiments. One micron thick semithin sections stained with toluidine blue were used for morphometric examination of the DRGs from control (n=3) and oxaliplatin-treated mice (n=3). (Renn et al. Molecular Pain 2011, 7:29). Only the cells where the nucleolus was included in the section plane of 50 μm-spaced out sections were considered to avoid the overlapping of the same cell bodies and they were analyzed with computer-assisted image analysis (ImageJ, NIH) to measure the soma and nucleolus size of at least 300 DRG neurons per mouse.

[16] = cited from earlier work; remark: listed apart in the source
[17] = tested on: Balb/c mice exposed to chronic treatment with Oxaliplatin; test: Caudal nerve conduction study in chronic oxaliplatin neuropathy model; format: in vivo, mouse; settings: OXA 3.5 mg/kg iv, 8 cycles ± BFMD 30 mg/kg ip + 15 mg/kg iv
Method: The development of peripheral neuropathy after chronic administration of drugs was assessed by evaluating the nerve conduction velocity (NCV) along caudal and digital nerve using an electromyography apparatus (Myto2 ABN Neuro, Firenze, Italy). Caudal NCV was determined by placing a couple of recording needle electrodes at the base of the tail and a couple of stimulating needle electrodes 3.5 cm distally to the recording points. Similarly, the digital NCV was determined by placing the recording electrodes close to the ankle bone and the stimulating electrodes close to the fourth toe near the digital nerve. The intensity, duration and frequency of stimulation were set up in order to obtain optimal results. All the neurophysiological determinations were performed under standard conditions in a temperature-controlled room (22+/−2° C.) and the animal under isoflurane anesthesia along the whole procedure with continuous monitoring of vital signs.

[18] = tested on: Balb/c mice exposed to chronic treatment with Oxaliplatin; test: Dynamic Plantar Aesthesiometer Test in chronic oxaliplatin neuropathy model; format: in vivo, mouse; settings: OXA 3.5 mg/kg iv, 8 cycles ± BFMD 30 mg/kg ip + 15 mg/kg iv
Method: The Dynamic Plantar Aesthesiometer Test was used to determine the alterations in mechanical pain perception and their changes due to pharmacological treatment. Mice were accustomed to the device 3 days before performing the tests after a 1 hour acclimatization period followed by testing. The mechanical nociceptive threshold was assessed using a Dynamic Aesthesiometer Test (model 37450, Ugo Basile Biological Instruments, Comerio. Italy), which generated a linearly increasing mechanical force. At each time point, after the acclimatization period, a servo-controlled mechanical stimulus (a pointed metallic filament, 0.5-mm diameter) was applied to the plantar surface of the hind paw, which exerted a progressively increasing punctuate pressure, reaching up to 15 g within 15 seconds. The pressure evoking a clear voluntary hind-paw withdrawal response was recorded automatically and taken as representing the mechanical nociceptive threshold index. The mechanical threshold was always assessed alternatively on each side every 2 minutes on 3 occasions to yield a mean value. The results represent the maximal pressure (expressed in grams) tolerated by the animals. There was an upper limit cutoff of 30 seconds, after which the mechanical stimulus was automatically terminated.

[19] = MDCK-II cells transfected with human OCT2, probe oxaliplatin 10 μM

CN/C(=N/CCSCc1nc[nH]c1C)NC#N [Cimetidine]
Inhibition % @ 20 μM (substrate ASP+) (OCT2 [1]; OCT2-mediated uptake, ASP+ 5 μM in HBSS, from Kido Y et al. J Med Chem 2011): 43%
Plasma peak unbound concentration Cmax,u [2]: 9600 nM
effect on anti-tumor potency of oxaliplatin in HepG2 (HepG2 cells): nor cimetidine
Plasma protein binding (%) ([3]; published data): 20%
IC50 (OCT2 [4]): 9.71 µM
inhibition at 30 min, 5 μM (OCT2 [4]): 34%
inhibition at 30 min, 50 μM (OCT2 [4]): 83%
potency estimated from few doses at 30 min (OCT2 [4]; IC50 (μM) (substrate Oxaliplatin)): 9.7 µM
effect on oxaliplatin induced cytotoxicity in OCT2 expressing cells [5]: did not reduce oxaliplatin cytotoxicity
IC50 (OCT2 [6]; IC50,app (μM), apparent inhibition constant in 100% human serum or HBSS containing 4% BSA, OCT2-mediated oxaliplatin uptake): 36.8 µM
IC50 (OCT2 [6]; OCT2 IC50, app (μM), 100% human serum or HBSS containing 4% BSA, 20 μM or 100 μM oxaliplatin): 36.8 ± 13.6 µM
transporter preference in inhibiting oxaliplatin transport (OCT2 [6]): even more preference towards inhibiting oxaliplatin transport through MATE1
IC50 (OCT2 [7]): 57.6 ± 6.9 µM
potency estimated from few doses (OCT2 [8]): 26.4 µM

C#Cc1cccc(Nc2ncnc3cc(OCCOC)c(OCCOC)cc23)c1 [Erlotinib]
cellular accumulation of oxaliplatin in cells co-expressing OCT2 and MATE1 [9]: reduced cellular accumulation of oxaliplatin
Plasma peak unbound concentration Cmax,u [10]: 380 nM
Mean Cmax ([3]; 150 mg po, day 24): 2120 ng/mL
Mean T1/2 ([3]; 150 mg po, day 24): 18.2 h
Mean Cmax ([3]; 150 mg po, single dose): 1140 ng/mL
Mean T1/2 ([3]; 150 mg po, single dose): 20 h
Plasma protein binding (%) ([3]; published data): 93%
Cmax ([3]; read-out: Mean Cmax, 150 mg po, day 24): 5400 nM
Cmax ([3]; read-out: Mean Cmax, 150 mg po, single dose): 2900 nM
Cmax ([3]; read-out: Plasma peak total concentration Cmax, published clinical pharmacokinetic data): 5400 nM
inhibition at 30 min, 5 μM (OCT2 [4]; [19]): 93%
inhibition at 30 min, 50 μM (OCT2 [4]; [19]): 106%
cytotoxicity of the inhibitor itself ([5]; 6 μM, without oxaliplatin, FIG. 6B): showed cytotoxicity itself without adding oxaliplatin
effect on oxaliplatin induced cytotoxicity in OCT2 expressing cells [5]: its EC50 value could not be obtained due to an ambiguous fitting
transporter preference in inhibiting oxaliplatin transport (OCT2 [6]): potent in suppressing OCT1 as well as OCT2
effect on cisplatin anti-proliferation potency in HT-29 (HT-29 cells): ignorable impact on cisplatin cytotoxicity

CCNC(=O)[C@@H]1CCCN1C(=O)[C@H](CCCNC(=N)N)NC(=O)[C@H](CC(C)C)NC(=O)[C@@H](CC(C)C)NC(=O)[C@H](Cc1ccc(O)cc1)NC(=O)[C@H](CO)NC(=O)[C@H](Cc1c[nH]c2ccccc12)NC(=O)[C@H](Cc1c[nH]cn1)NC(=O)[C@@H]1CCC(=O)N1 [Leuprolide]
Inhibition % @ 20 μM (substrate ASP+) (OCT2 [1]; human, 20 μM): 88%
Plasma peak unbound concentration Cmax,u [2]: 10 nM
inhibition at 5 min, 5 μM (OCT2 [11]): 58%
inhibition at 5 min, 50 μM (OCT2 [11]): 91%
potency estimated from few doses (OCT2 [12]): 2.8 µM
Cmax ([3]; human, in vivo): 17 nM
Plasma protein binding (%) ([3]; human, in vivo): 46%
IC50 (OCT2 [4]): 1.57 µM
inhibition at 30 min, 5 μM (OCT2 [4]): 76%
inhibition at 30 min, 50 μM (OCT2 [4]): 97%
potency estimated from few doses at 30 min (OCT2 [4]): 1.57 µM
IC50 (OCT2 [7]): 3.62 µM

O=C(O)C(=O)O.[NH-][C@@H]1CCCC[C@H]1[NH-].[Pt+2] [Oxaliplatin]
pharmacokinetic interaction between BFMD and OXA (plasma levels) [13]: unaffected by the presence of BFMD
Cold Plate Test pain signs after third injection ([14]; 3 cycles): significant increase in pain signs versus CTRL and all groups of treatment
Cold Plate Test pain signs at the end of treatment (eight injections) ([14]; 8 cycles): significant increase in pain signs versus CTRL and BFMD
area of DRG neuron cell bodies and nucleoli (morphometry) ([15]; OXA 3.5 mg/kg iv twice a week for 4 weeks (8 cycles) ± BFMD 30 mg/kg ip + 15 mg/kg iv): significant decrease in the area
DRG histopathology (light and electron microscopy) ([15]; OXA 3.5 mg/kg iv, 8 cycles ± BFMD 30 mg/kg ip + 15 mg/kg iv): high incidence of multinucleolated cell bodies with eccentric nucleoli
patients with severe PN (Grade 3 or higher) ([16]; cumulative doses 510-765 mg/m^2): up to 10%
patients developing severe PN ([16]; cumulative doses above 1000 mg/m^2, Argriou 2012): approximately 50%
caudal nerve action potential amplitude [17]: significant decrease in caudal amplitude
caudal nerve conduction velocity [17]: significant reduction in caudal nerve conduction velocity vs. control mice
mechanical allodynia, Dynamic Aesthesiometer Test at the end of treatment [18]: development of mechanical allodynia with a reduction in the latency until withdrawal
